Reference: publication PMC9942619, “Oseltamivir phosphate for suspension is bioequivalent to TAMIFLU in healthy volunteers: a randomized, open-label clinical study” (BMC Pharmacology & Toxicology, 2023)

Tests used:
[1] = Single-dose crossover pharmacokinetics of oseltamivir and oseltamivir carboxylate in plasma (HPLC-MS/MS, non-compartmental analysis); format: in vivo, healthy Chinese subjects; details: fed vs fasting; plasma analyte
Description: This study was developed in healthy subjects in the fasting or postprandial state, using a single-dose, randomized, open-label, two-period, two-sequence, self-crossover design. It authorized by the Ethics Committee of the First Affiliated Hospital of Bengbu Medical College. The ethical approval process complies with the requirements of Good Clinical Practice (GCP), the Declaration of Helsinki and relevant Chinese laws and regulations. Registration number CTR20200764 at 26-Apr-2020. http://www.chinadrugtrials.org.cn/clinicaltrials.searchlist.dhtml.
According to "the Guiding Principles for Human Bioavailability and Bioequivalence test of Pharmaceutical Preparations (2015 Edition)", "the Guiding Principles for Human Bioequivalence Research of Chemical Drug Imitations with Pharmacokinetic Parameters as the End Point Evaluation Indicators", and recommended dose in Tamiflu® instructions, the single oral dose of 75 mg/12.5 mL was determined for the reference preparation and test preparation of this study. […] Assuming one-sided α = 0.05, β = 0.2, %CV of 31.87%, a mean ratio F between the test product and reference product of 1, and the bioequivalence interval of 80.00–125.00%, the sample size of the two-period, crossover study design is 35 cases, calculated by PASS software. […] The quantitative linear range of oseltamivir is 0.500–200 ng/mL, and the LLOQ is 0.500 ng/mL. The quantitative linear range of oseltamivir carboxylate is 4.00–800 ng/mL, and the LLOQ is 4.00 ng/mL.
Pharmacokinetic parameters of oseltamivir and oseltamivir carboxylate were calculated using Phoenix WinNonlin (Pharsight Corporation, 8.3.1) based on individual blood concentrations and sampling time (calculated by actual sampling time) using non-compartmental analysis (NCA), Cmax, Tmax, AUC0-t, AUC0-∞, t1/2, λz, as well as %AUCex for oseltamivir and oseltamivir carboxylate were included. […]

[2] = parameters: method as in doi:10.1002/14651858.CD008965.pub4, PMID 25640810, PMID 12908848; details: cited from earlier work
[3] = parameters: method as in earlier work; details: used for sample size estimation; cited from earlier work
influenza pneumonia = system: influenza pneumonia; parameters: method as in PMID 33718494; details: early treatment compared with late treatment; cited from earlier work

Row | Compound | Cmax, AUC0-t under fed conditions [1] | change of AUC0-∞ after feeding [1] | incidence of other side effects (conjunctivitis, rhinorrhagia, allergy, cardiac arrhythmias, gastrointestinal bleeding, neuropsychiatric events etc.) [2] [%] | incidence of nausea ([2]; most common side effects) [%] | incidence of vomiting ([2]; most common side effects) | intra-individual coefficient of variation (%CV) of AUC [3] | intra-individual coefficient of variation (%CV) of Cmax [3] | reduction in ICU mortality (influenza pneumonia) [%]
1 | CCC(CC)O[C@@H]1C=C(C(=O)O)C[C@H](N)[C@H]1NC(C)=O [oseltamivir carboxylate] | lowered | decreases | – | – | – | – | – | –
2 | CCOC(=O)C1=C[C@@H](OC(CC)CC)[C@H](NC(C)=O)[C@@H](N)C1 [oseltamivir phosphate] | – | – | < 1 | 10 | 2–15% | – | – | –
3 | CCOC(=O)C1=C[C@@H](OC(CC)CC)[C@H](NC(C)=O)[C@@H](N)C1 [oseltamivir] | – | increases | – | – | – | 7.24–7.35% | 21.16–31.87% | 33
